Target: T1, cpFLIPPi-5.3m
T1 construct: gene PiBP
Conditions: in vivo, root epidermal cells of transition zone; injection buffer 50 mM MOPS-KOH pH 7.3, 0.5 mM MgCl2, total K+ 75 mM

Kd: 7.4 ± 1.7 mM
Structure (SMILES): O=P(O)(O)O [Pi, inorganic phosphate]

Reference: publication PMC7723077, “Spatial Profiles of Phosphate in Roots Indicate Developmental Control of Uptake, Recycling, and Sequestration” (Plant Physiology, 2020)
